Measurements: patent US8748418B2, “1,4-oxazepines as BACE1 and/or BACE2 inhibitors” (Hoffmann-La Roche Inc., priority 2011, dated 2014)

Legend:
BACE1 = BACE1 (Homo sapiens (Human), UniProt P56817); test: Cellular Aβ-lowering assay (Aβ40 ELISA in HEK293 cells expressing human APP695); type: cell-based; conditions: HEK293 cells stably transfected with human APP wt (APP695), Aβ40 in supernatant after 18-20 hrs
Protocol: Cellular Aβ-Lowering Assay:
Human HEK293 cells which are stably transfected with a vector expressing a cDNA of the human APP wt gene (APP695) were used to assess the potency of the compounds in a cellular assay. The cells were seeded in 96-well microtiter plates in cell culture medium (Iscove, plus 10% (v/v) fetal bovine serum, glutamine, penicillin/streptomycin) to about 80% confluence and the compounds were added at a 10× concentration in 1/10 volume of medium without FCS containing 8% DMSO (final concentration of DMSO was kept at 0.8% v/v). After 18-20 hrs incubation at 37° C. and 5% CO2 in a humidified incubator the culture supernatant was harvested for the determination of Aβ40 concentrations. 96 well ELISA plates (e.g., Nunc MaxiSorb) were coated with monoclonal antibody which specifically recognize the C-terminal end of Aβ40 (Brockhaus et al., NeuroReport 9, 1481-1486; 1998). After blocking of non-specific binding sites with e.g. 1% BSA and washing, the culture supernatants were added in suitable dilutions together with a horseradish peroxidase-coupled Aβ detection antibody (e.g., antibody 4G8, Senetek, Maryland Heights, Mo.) and incubated for 5 to 7 hrs. Subsequently the wells of the microtiter plate were washed extensively with Tris-buffered saline containing 0.05% Tween 20 and the assay was developed with tetramethylbenzidine/H2O2 in citric acid buffer. After stopping the reaction with one volume 1NH2SO4 the reaction was measured in an ELISA reader at 450 nm wavelength. The concentrations of Aβ in the culture supernatants were calculated from a standard curve obtained with known amounts of pure Aβ peptide.

BACE2 = BACE2 (Homo sapiens (Human), UniProt Q9Y5Z0); test: Immunofluorescence Resonance Energy Transfer (FRET) assay for BACE2 inhibition; type: biochemical; conditions: TMEM27-based peptide substrate 5 μM, pH 4.5
Protocol: Immunofluorescence Resonance Energy Transfer (FRET) Assay for BACE2 Inhibition:
BACE2 enzyme ectodomain (derived from plasmid “pET17b-T7-hu proBACE2”) was prepared as described in Ostermann et al., “Crystal Structure of Human BACE2 in Complex with a Hydroxyethylamine Transition-state Inhibitor”, Journal of Molecular Biology 2006, 355, 249-261. The pro-enzyme was stored at 4° C. at a concentration of 70 μg/ml.
The FRET assay was performed essentially as described in Grüninger-Leitch et al., Journal of Biological Chemistry (2002) 277(7) 4687-93 (“Substrate and inhibitor profile of BACE (beta-secretase) and comparison with other mammalian aspartic proteases”). In summary, a peptide is designed that is cleaved by the protease. The peptide is labelled with dabcyl at the N terminus and Lucifer Yellow at the C-terminus, such that for an intact peptide the Lucifer Yellow fluorescence is quenched by the dabcyl. When the peptide is cut by BACE2, the quenching is removed and a fluorescent signal is generated.
The assay was performed as described in Grueninger et al. 2002 at pH 4.5 using a substrate concentration of 5 μM. A FRET peptide based on the TMEM27 sequence was devised. dabcyl-[…]-LucY (SEQ ID NO: 1).
The assay readout is the initial rate of change of fluorescence intensity giving a relative measure of BACE2 activity. Small values correspond to high inhibition and larger values to low inhibition. […] IC50 values were determined using these assay values generated for a range of inhibitor concentrations and the curve fitting software XLfit (IDBS) using the Sigmoidal Dose-Response Model.

BACE1, sequence (P56817 46-501): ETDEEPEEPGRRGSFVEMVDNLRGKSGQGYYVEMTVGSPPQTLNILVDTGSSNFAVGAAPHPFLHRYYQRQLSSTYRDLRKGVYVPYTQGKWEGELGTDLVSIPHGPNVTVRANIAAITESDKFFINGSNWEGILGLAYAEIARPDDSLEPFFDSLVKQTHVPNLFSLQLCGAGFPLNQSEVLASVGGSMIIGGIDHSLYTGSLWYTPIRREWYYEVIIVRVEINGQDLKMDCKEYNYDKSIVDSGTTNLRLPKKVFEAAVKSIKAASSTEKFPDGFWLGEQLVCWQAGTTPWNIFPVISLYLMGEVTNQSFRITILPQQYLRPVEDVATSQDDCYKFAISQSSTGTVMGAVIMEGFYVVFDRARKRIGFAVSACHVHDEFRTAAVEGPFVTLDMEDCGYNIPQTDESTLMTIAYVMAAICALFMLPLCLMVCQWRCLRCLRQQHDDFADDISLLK
BACE2, sequence (Q9Y5Z0 63-473): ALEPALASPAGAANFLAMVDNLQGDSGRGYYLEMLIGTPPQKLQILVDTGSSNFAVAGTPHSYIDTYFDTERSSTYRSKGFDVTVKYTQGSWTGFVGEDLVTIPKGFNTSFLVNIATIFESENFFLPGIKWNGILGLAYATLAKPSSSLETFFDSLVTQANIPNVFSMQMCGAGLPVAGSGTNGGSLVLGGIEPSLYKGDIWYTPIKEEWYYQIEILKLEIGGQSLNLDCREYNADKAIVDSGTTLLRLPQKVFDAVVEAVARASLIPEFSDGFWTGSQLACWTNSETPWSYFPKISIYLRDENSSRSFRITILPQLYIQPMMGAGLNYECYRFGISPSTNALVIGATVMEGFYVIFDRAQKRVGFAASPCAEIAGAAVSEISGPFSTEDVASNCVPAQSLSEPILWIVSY

SMILES | IC50 (BACE1) | IC50 (BACE2)
C[C@]1(c2cc(NCc3nn(C(F)F)cc3Cl)ccc2F)N=C(N)COC[C@@H]1F [Example 2, (5R,6R)-5-{5-[(4-Chloro-1-difluoromethyl-1H-pyrazol-3-ylmethyl)-amino]-2-fluoro-phenyl}-6-fluoro-5-methyl-2,5,6,7-tetrahydro-[1,4]oxazepin-3-ylamine] | 40 nM | 35 nM
CC1(C)OCC(N)=N[C@](C)(c2cc(Nc3ccc(F)cc3)ccc2F)C1(F)F [Example 19, (R)-6,6-Difluoro-5-[2-fluoro-5-(4-fluoro-phenylamino)-phenyl]-5,7,7-trimethyl-2,5,6,7-tetrahydro-[1,4]oxazepin-3-ylamine] | 310 nM | 4160 nM
CC1(C)OCC(N)=N[C@](C)(c2cc(N[C@@H]3CCc4cc(C#N)cnc43)c(F)cc2F)C1(F)F [Example 21, (R)-7-[5-((R)-3-Amino-6,6-difluoro-5,7,7-trimethyl-2,5,6,7-tetrahydro-[1,4]oxazepin-5-yl)-2,4-difluoro-phenylamino]-6,7-dihydro-5H-[1]pyrindine-3-carbonitrile] | 14000 nM | 2810 nM
C[C@]1(c2cc(NC3CCCOC3)ccc2F)N=C(N)COC[C@@H]1F (stereo partly drawn) [Example 4, (5R,6R)-6-Fluoro-5-[2-fluoro-5-(tetrahydro-pyran-3-ylamino)-phenyl]-5-methyl-2,5,6,7-tetrahydro-[1,4]oxazepin-3-ylamine] | 400 nM | 73 nM
CC1(C)OCC(N)=N[C@](C)(c2cc(N[C@@H]3CCc4cc(C#N)cnc43)ccc2F)C1(F)F [Example 13, (R)-7-[3-((R)-3-Amino-6,6-difluoro-5,7,7-trimethyl-2,5,6,7-tetrahydro-[1,4]oxazepin-5-yl)-4-fluoro-phenylamino]-6,7-dihydro-5H-[1]pyrindine-3-carbonitrile] | 310 nM | 95 nM
C[C@]1(c2cc(NC3CCc4cc(Cl)cnc43)ccc2F)N=C(N)COC[C@@H]1F (stereo partly drawn) [Example 1, [3-((5R,6R)-3-Amino-6-fluoro-5-methyl-2,5,6,7-tetrahydro-[1,4]oxazepin-5-yl)-4-fluoro-phenyl]-(3-chloro-6,7-dihydro-5H-[1]pyrindin-7-yl)-amine] | 70 nM | 24 nM
